This experiment has as its target T1, PI3Kalpha (Homo sapiens, UniProt P42336).
T1 construct: His (N); host or cells: SF9 insect cells (baculovirus co-infection)
The experiment can be described thus: PI3K enzyme HTRF assay (PI3Kalpha). The class given is biochemical. The text has this: Active phosphatidylinositol 3′ kinase (PI3K) enzyme is purified at Millennium Pharmaceuticals from SF9 insect cells (Invitrogen) co-infected with baculovirus containing amino-terminal His-tagged p110α and p85α expression constructs.
The PI3K enzyme HTRF® assay makes use of an energy transfer complex comprised of biotin-PI(3,4,5)P3, Europhium labeled anti-GST monoclonal antibody, a GST-tagged GRP1 pleckstrin homology (PH) domain, and Streptavidin-APC (allophycocyanin). Excitation of the Europium in the complex results in a stable time-resolved fluorescence resonance energy transfer (FRET) signal. Phosphatidylinositol 3,4,5 triphosphate (PI(3,4,5)P3, the product of PI3K, disrupts the energy transfer complex by competing with biotin-PI(3,4,5)P3 for binding to the GRP1 PH domain, resulting in a decreased fluorescent signal. Inhibitors of PI3K in the reaction prevent a decrease in the fluorescent signal.
PI3K enzyme (325 pM) is incubated with di-C8 PI(4,5)P2 substrate (3.5 μM, CellSignals, Inc.) in assay buffer (50 mM HEPES pH 7.0, 5 mM DTT, 150 mM NaCl, 10 mM β-glycerophosphate, 5 mM MgCl2, 0.25 mM sodium cholate, 0.001% CHAPS) containing 25 μM ATP and 0.5 μL of test compound (in 100% DMSO) at multiple concentrations in a final volume of 20.5 μL in 384 well plates for 30 min at 22-23° C. […] Fluorescent signal for each well is then measured on an LJL_Analyst (Molecular Devices). […]

T1 sequence (P42336 whole entry): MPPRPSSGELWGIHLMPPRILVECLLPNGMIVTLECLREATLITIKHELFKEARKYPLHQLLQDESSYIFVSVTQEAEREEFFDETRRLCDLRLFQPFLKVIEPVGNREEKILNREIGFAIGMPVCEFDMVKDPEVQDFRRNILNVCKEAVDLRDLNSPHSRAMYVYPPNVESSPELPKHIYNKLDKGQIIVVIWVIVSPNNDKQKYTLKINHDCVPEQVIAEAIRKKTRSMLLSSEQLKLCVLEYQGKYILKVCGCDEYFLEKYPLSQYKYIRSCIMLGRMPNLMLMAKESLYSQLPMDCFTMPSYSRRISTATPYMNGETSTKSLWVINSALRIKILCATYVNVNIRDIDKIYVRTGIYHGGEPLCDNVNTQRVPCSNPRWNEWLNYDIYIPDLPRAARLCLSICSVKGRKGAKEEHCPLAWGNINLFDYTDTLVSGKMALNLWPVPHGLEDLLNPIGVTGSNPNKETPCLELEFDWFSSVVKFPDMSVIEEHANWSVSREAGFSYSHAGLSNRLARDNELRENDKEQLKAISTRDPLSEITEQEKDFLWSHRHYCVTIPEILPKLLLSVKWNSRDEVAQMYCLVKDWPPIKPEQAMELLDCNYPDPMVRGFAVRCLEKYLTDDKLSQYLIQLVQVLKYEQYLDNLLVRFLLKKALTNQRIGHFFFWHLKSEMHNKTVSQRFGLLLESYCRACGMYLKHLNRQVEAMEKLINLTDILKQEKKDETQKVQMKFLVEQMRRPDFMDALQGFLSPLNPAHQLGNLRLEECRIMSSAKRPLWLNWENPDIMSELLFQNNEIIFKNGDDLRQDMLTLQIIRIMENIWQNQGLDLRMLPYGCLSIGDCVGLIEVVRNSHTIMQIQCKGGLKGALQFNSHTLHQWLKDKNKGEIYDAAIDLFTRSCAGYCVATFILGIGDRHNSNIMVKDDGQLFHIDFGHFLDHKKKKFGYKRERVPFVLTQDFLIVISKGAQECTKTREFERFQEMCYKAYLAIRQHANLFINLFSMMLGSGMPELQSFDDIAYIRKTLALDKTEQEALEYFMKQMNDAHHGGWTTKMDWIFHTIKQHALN
T1 sequence (P27986 whole entry partner): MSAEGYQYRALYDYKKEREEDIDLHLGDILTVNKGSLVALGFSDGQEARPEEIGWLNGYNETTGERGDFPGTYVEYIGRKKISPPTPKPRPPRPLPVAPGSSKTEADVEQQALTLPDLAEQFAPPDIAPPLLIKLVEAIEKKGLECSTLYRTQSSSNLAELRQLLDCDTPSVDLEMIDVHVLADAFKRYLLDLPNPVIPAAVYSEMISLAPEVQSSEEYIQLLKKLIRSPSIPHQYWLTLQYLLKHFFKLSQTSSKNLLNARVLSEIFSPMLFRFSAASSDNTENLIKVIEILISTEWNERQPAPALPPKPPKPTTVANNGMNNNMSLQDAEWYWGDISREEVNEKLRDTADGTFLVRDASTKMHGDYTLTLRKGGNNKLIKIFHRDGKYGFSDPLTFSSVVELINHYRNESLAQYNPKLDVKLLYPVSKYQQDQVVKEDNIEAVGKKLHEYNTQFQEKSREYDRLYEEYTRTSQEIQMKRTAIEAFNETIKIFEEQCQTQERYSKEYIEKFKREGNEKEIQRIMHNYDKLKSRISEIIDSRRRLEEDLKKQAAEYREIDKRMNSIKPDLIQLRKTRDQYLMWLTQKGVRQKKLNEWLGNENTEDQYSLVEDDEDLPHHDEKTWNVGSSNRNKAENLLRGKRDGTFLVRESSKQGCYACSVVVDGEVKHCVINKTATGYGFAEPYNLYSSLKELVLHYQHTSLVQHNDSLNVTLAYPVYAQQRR

For the molecule `CC(=O)Nc1cc(-c2nc(-c3ccccc3Cl)c(NC(C)=O)s2)ccn1` [Example C-1, N-{4-[5-(acetylamino)-4-(2-chlorophenyl)-1,3-thiazol-2-yl]pyridin-2-yl}acetamide], the half-inhibitory concentration (IC50) was > 1 µM.
